The values that follow come from US9604964B2, “Dihydropyrazole GPR40 modulators” (BRISTOL-MYERS SQUIBB COMPANY, priority 2012, dated 2017).

pEC50: −log10 of the molar value.

For test [1], the target named is T1, human GPR40 (Homo sapiens, UniProt O14842). The experiment in a line: GPR40 IP-One HTRF assay in HEK293/GPR40 inducible cell lines. It is filed as cell-based. Set-up: expressed in transfected cells. The note with it: HEK293 cells, tetracycline-inducible human GPR40, IP-One HTRF; read-out: hGPR40 IP1 EC50. As to the method: GPR40 IP-One HTRF Assays in HEK293/GPR40 Inducible Cell Lines
T1 sequence (O14842 whole entry): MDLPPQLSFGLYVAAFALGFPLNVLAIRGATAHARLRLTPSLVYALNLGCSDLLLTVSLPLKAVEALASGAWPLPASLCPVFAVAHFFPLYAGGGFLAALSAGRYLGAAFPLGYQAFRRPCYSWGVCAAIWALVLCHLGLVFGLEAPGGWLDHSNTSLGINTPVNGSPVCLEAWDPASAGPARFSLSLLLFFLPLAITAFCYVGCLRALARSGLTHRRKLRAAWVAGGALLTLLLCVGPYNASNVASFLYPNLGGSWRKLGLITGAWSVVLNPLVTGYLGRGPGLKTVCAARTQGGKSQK
Human, mouse and rat GPR40-mediated intracellular IP-One HTRF assays were established using human embryonic kidney HEK293 cells stably transfected with a tetracycline-inducible human, mouse or rat GPR40 receptor. Cells were routinely cultured in growth medium containing DMEM (Gibco Cat. #:12430-047), 10% qualified FBS (Sigma, Cat. #: F2442), 200 μg/mL hygromycin (Invitrogen, Cat. #: 16087-010) and 1.5 μg/mL blasticidin (Invitrogen, Cat. # R210-01). About 12-15 million cells were passed into a T175 tissue culture flask (BD Falcon 353112) with growth medium and incubated for 16-18 hours (overnight) at 370 C with 5% CO2. The next day, assay medium was exchanged with growth medium containing 1000 ng/mL of tetracycline (Fluka Analytical, Cat. #87128) to induce GPR40 expression for 18-24 hours at […] incubator with 5% CO2. After induction, the cells were washed with PBS (Gibco, Cat. #14190-036) and detached with Cell Stripper (Cellgro, Cat. #25-056-CL). 10-20 mL growth medium were added to the flask and cells were collected in 50 mL tubes (Falcon, Cat.#:352098) and spun at 1000 RPM for 5 minutes. Culture medium was aspirated and the cells were resuspended in 10 mL of 1×IP-One Stimulation Buffer from the Cisbio IP-One kit (Cisbio, Cat. #62IPAPEJ). The cells were diluted to 1.4×10^6 cells/mL in Stimulation Buffer.
Test compounds were 3-fold, 11-point serially diluted in DMSO in a REMP assay plate (Matrix Cat. #: 4307) by BioCel (Agilent). The compounds were transferred into an Echo plate (LABCYTE, Cat. #: LP-0200) and 20 nL of diluted compounds were transferred to an assay plate (proxi-plate from Perkin Elmer, Cat. #6008289) by Echo acoustic nano dispenser (LABCYTE, model ECHO550). 14 μL of the diluted cells were then added to the assay plate by Thermo (SN 836 330) Combi Drop and incubated at room temperature for 45 minutes. Then 3 μL of IP1 coupled to dye D2 from the Cisbio IP-One kit were added to the assay plate followed by 3 μL of Lumi4TM-Tb cryptate K from the kit. The plate was further incubated at room for 1 hour before reading on the Envision (Perkin Elmer Model2101) with an HTRF protocol. Activation data for the test compound over a range of concentrations was plotted as percentage activation of the test compound (100%=maximum response). After correcting for background [(sample read-mean of low control)/(mean of high control−mean of low control)] (low control is DMSO without any compound), EC50 values were determined. The EC50 is defined as the concentration of test compound which produces 50% of the maximal response and was quantified using the 4 parameter logistic equation to fit the data.

Test [2] deals with T1, human GPR40. The experiment in a line: FDSS-based intracellular calcium assay (Human GPR40 in vitro assay). It is filed as cell-based. The note with it: intracellular Ca2+ response, cells expressing GPR40; read-out: hGPR40 EC50. The arrangement: 3xFLAG; expressed in transfected cells. As to the method:
FDSS-based Intracellular Calcium Assay
Compounds are dissolved in DMSO and diluted to desired concentrations with assay buffer and added to the cells as 3× solution (20 μL per well). Run fluorescence/luminescence reader FDSS (Hamamatsu) to read intracellular Ca^2+ response.

For `COc1cccc(N2CCC(Cc3ccc(N4N=C(c5ccc(F)cc5)[C@@H](C)[C@@H]4CC(=O)O)cc3)CC2)c1` [Example 101, 2-((4S,5S)-3-(4-fluorophenyl)-1-(4-((1-(3-methoxyphenyl)piperidin-4-yl)methyl)phenyl)-4-methyl-4,5-dihydro-1H-pyrazol-5-yl)acetic acid], the pEC50 on human GPR40 [1] was 7.40; on human GPR40 [2], 6.55.

In the case of `COc1cc(N2CC[C@@H](Oc3ccc(N4N=C(C(F)(F)F)[C@@H](C)[C@@H]4CC(=O)O)cc3)[C@H](CC#N)C2)c(Cl)cn1` [Example B2, 2-((4S,5S)-1-(4-(((3R,4R)-1-(5-chloro-2-methoxypyridin-4-yl)-3-(cyanomethyl)piperidin-4-yl)oxy)phenyl)-4-methyl-3-(trifluoromethyl)-4,5-dihydro-1H-pyrazol-5-yl)acetic acid], the pEC50 at human GPR40 [1] was 6.44; at human GPR40 [2], 6.23.

The pEC50 is the negative decadic logarithm of the EC50, by convention in mol/L.
